From patent US20110288036A1, “Methods for Treating or Preventing Vascular Graft Failure” (priority 2010, published 2011)

What was measured:
[1] = test system: THP-1 cells; assay: Cytokine ELISA in PMA/LPS-activated THP-1 cells; type: cell-based, human; details: PMA then LPS
Procedure: The ability of MMI-0100 ([…]; SEQ ID NO: 1) to inhibit the production of inflammatory cytokines (TNF-α and IL-1β) in vitro was examined using THP-1 cells. Briefly, THP-1 cells were activated with PMA for 24 hours, and treated subsequently with 10 μg of LPS. The amount of inflammatory cytokines (TNF-α and IL-1β, pg/ml) produced in the medium in the presence or absence of increasing concentrations (1 μM, 3 μM, 10 μM, and 30 μM) of MMI-0100 ([…]; SEQ ID NO: 1) was determined by cytokine specific enzyme-linked immunosorbent assay (ELISA). Analysis of inflammatory cytokines (TNF-α and IL-1β) was performed with cytokine-specific ELISA kit (PeproTech, Inc., Rocky Hill, N.J.). The cytokine-specific ELISA employs highly-purified anti-cytokine antibodies (capture antibodies) that are noncovalently adsorbed (“coated”) onto plastic microwell plates. After washings, the immobilized antibodies capture specifically soluble cytokine proteins present in samples applied to the plate. After washing away unbound material, the captured cytokine proteins are detected by biotin-conjugated anti-cytokine antibodies (detection antibodies) followed by an enzyme-labeled avidin or streptavidin reporter. Following addition of a chromogenic (color-developing) substrate-containing solution, the level of colored product generated by the bound, enzyme-linked, detection reagents can be measured spectrophotometrically using an ELISA-plate reader at an appropriate optical density.
In order to prepare plates for ELISA, capture antibodies (anti-TNF-α or anti-IL-1β antibodies) were diluted with PBS to a concentration of 1 μg/ml. 100 μl of each diluted antibody was added immediately to each well of the ELISA plate. […]
The standard was diluted from 2 ng/ml to zero in diluent, and 100 μl of the standard or sample was added immediately to each well in triplicate and incubated at room temperature for at least 2 hours. […] The level of colored product generated by the bound, enzyme-linked, detection reagents was measured spectrophotometrically using an ELISA-plate reader at an appropriate optical density.

[2] = test system: human saphenous vein (HSV); assay: Muscle bath: sodium nitroprusside-induced relaxation of human saphenous vein; type: cell-based; details: for relaxation: 100 μM pretreatment, phenylephrine 10^-6 M, percent relaxation per method
Procedure: De-identified, discarded segments of human saphenous vein (HSV) were collected from consented patients undergoing coronary artery or peripheral vascular bypass surgeries. HSV segments were stored in a saline solution until the end of the surgical procedure, at which time they were placed in cold transplant harvest buffer (100 mM potassium lactobionate, 25 mM KH2PO4, 5 mM MgSO4, 30 mM Raffinose, 5 mM Adenosine, 3 mM Glutathione, 1 mM Allopurinol, 50 g/L Hydroxyethyl starch, pH 7.4). The vessels were used within 24 hours of harvest. Using sterile technique, HSV segments were transferred to a 60-mm Petri dish under a sterile hood. The edges (0.5 mm) of each segment were removed with a blade and excess adventitial tissue and fat removed with minimal manipulation. HSV segments were cut into consecutive rings of approximately 1.0 mm in width to be utilized for organ culture or muscle bath experiments. Two rings from each segment were immediately fixed in 10% formalin at 37° C. for 30 min to obtain pre-culture intimal thickening measurements.
In preparation for testing vein segment functional viability, HSV rings were weighed and their lengths recorded. To focus on smooth muscle responses, the endothelium was mechanically denuded by rolling the luminal surface of each ring at the tip of a fine vascular forceps before suspension in a muscle bath containing a bicarbonate buffer (120 mM NaCl, 4.7 mM KCl, 1.0 mM MgSO4, 1.0 mM NaH2PO4, 10 mM glucose, 1.5 mM CaCl2, and 25 mM […], pH 7.4) equilibrated with 95% O2 and 5% CO2 at 37° C. The rings were stretched and the length progressively adjusted until maximal tension was obtained. […] Rings were maintained at a resting tension of 1 g, which produces maximal responses to contractile agonists as previously determined, and equilibrated for 2 hours in buffer. […]
HSV rings were first contracted with 110 mM KCl (with equimolar replacement of NaCl in bicarbonate buffer) and the generated force was measured. […] Rings were relaxed with a cumulative log dose of sodium nitroprusside (SNP), a nitric oxide donor, and the force generated was recorded. […] Rings were then incubated with either buffer alone or buffer plus 100 μM of MMI-0100 ([…] (SEQ ID NO: 1)) for 2 hours, followed by treatment with the same doses of PE and SNP, and the forces generated again recorded. Measured force was normalized for ring weight and length and percent relaxation was calculated; force generated with 10^−6 M of PE was set as 0% relaxation.
The enhancing effect of MMI-0100 ([…]; SEQ ID NO: 1) on smooth muscle relaxation was examined by pre-treating harvested human saphenous vein (HSV) with MMI-0100 ([…]; SEQ ID NO: 1) before SNP treatment. […] Percentage of relaxation at 0, 0.01, 0.1, and 1.0 μM of SNP was measured. […]

Sequence: YARAAARQARAKALARQLGVAA [MMI-0100]
- IL-1β level in the medium ([1]; 30 μM, PMA/LPS alone about 450 pg/ml): about 100 pg/ml
- TNF-α level in the medium ([1]; 30 μM, PMA/LPS alone about 1000 pg/ml): about 300 pg/ml
- production of pro-inflammatory cytokines (TNF-α and IL-1β) ([1]; 1, 3, 10 and 30 μM): inhibits the production of pro-inflammatory cytokines (i.e., TNF-α and IL-1β) in a dose-dependent manner
- increase in relaxation compared to control-pretreated HSV ([2]; 30 μM, 2 hrs pretreatment, norepinephrine contraction, SNP 0-1 μM): about 40%
- relaxation ([2]; SNP 10^-7 M, untreated control 72.768±6.99): 92.54±3.09
- relaxation ([2]; SNP 10^-8 M, untreated control 10.825±5.62): 25.622±6.38
